Laboratory results: PubChem BioAssay AID248 (DTP/NCI, 2004)
Where “and” joins values, the source holds several entries; their conditions need not be identical. Identical values can stand only once. Toxic doses and inconclusive results are not listed. No stated cut-off is given here; in the data, active means T/C of 150% or more; inactive means T/C below 125%.

Tested on: L1210 leukemia ip in BDF1 mice, survival T/C
Assay: NCI In Vivo Anticancer Drug Screen. Data for tumor model L1210 Leukemia (intraperitoneal) in B6D2F1 (BDF1) mice
Conditions: endpoint: mean survival time, higher = longer survival
Summary of the method: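 Transplanted-tumor mice were given test agent; controls received vehicle only. Survival readings from the two groups were divided (treated over control).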

[1] = dose: 100.0 mg/kg/injection, schedule: Q01DX009 (ip), vehicle: Klucel (hydroxypropylcellulose) (HPC)
[2] = dose: 50.0 mg/kg/injection, schedule: Q01DX009 (ip), vehicle: saline with Tween-80
[3] = dose: 100.0 mg/kg/injection, schedule: Q01DX009 (ip), vehicle: saline with Tween-80
[4] = dose: 200.0 mg/kg/injection, schedule: Q01DX009 (ip), vehicle: saline with Tween-80
[5] = dose: 100.0 mg/kg/injection, schedule: Q04DX002 (ip), vehicle: Klucel (hydroxypropylcellulose) (HPC)
[6] = dose: 200.0 mg/kg/injection, schedule: Q04DX002 (ip), vehicle: Klucel (hydroxypropylcellulose) (HPC)
[7] = dose: 50.0 mg/kg/injection, schedule: Q01DX009 (ip), vehicle: saline
[8] = dose: 100.0 mg/kg/injection, schedule: Q01DX009 (ip), vehicle: saline
[9] = dose: 100.0 mg/kg/injection, schedule: Q04DX003 (ip), vehicle: saline
[10] = dose: 200.0 mg/kg/injection, schedule: Q01DX009 (ip), vehicle: saline
[11] = dose: 200.0 mg/kg/injection, schedule: Q04DX003 (ip), vehicle: saline
[12] = dose: 100.0 mg/kg/injection, schedule: Q01DX001 (ip), vehicle: saline
[13] = dose: 400.0 mg/kg/injection, schedule: Q01DX001 (ip), vehicle: saline
[14] = dose: 200.0 mg/kg/injection, schedule: Q01DX001 (ip), vehicle: saline
[15] = dose: 100.0 mg/kg/injection, schedule: Q04DX003 (ip), vehicle: saline with Tween-80
[16] = dose: 200.0 mg/kg/injection, schedule: Q04DX003 (ip), vehicle: saline with Tween-80
[17] = dose: 400.0 mg/kg/injection, schedule: Q04DX003 (ip), vehicle: saline with Tween-80
[18] = dose: 100.0 mg/kg/injection, schedule: Q01DX001 (ip), vehicle: carboxymethylcellulose (CMC)
[19] = dose: 200.0 mg/kg/injection, schedule: Q01DX001 (ip), vehicle: carboxymethylcellulose (CMC)
[20] = dose: 400.0 mg/kg/injection, schedule: Q01DX001 (ip), vehicle: carboxymethylcellulose (CMC)
[21] = dose: 50.0 mg/kg/injection, schedule: Q01DX001 (ip), vehicle: carboxymethylcellulose (CMC)
[22] = dose: 400.0 mg/kg/injection, schedule: Q01DX009 (ip), vehicle: saline with Tween-80
[23] = dose: 100.0 mg/kg/injection, schedule: Q01DX001 (ip), vehicle: saline with Tween-80
[24] = dose: 200.0 mg/kg/injection, schedule: Q01DX001 (ip), vehicle: saline with Tween-80
[25] = dose: 400.0 mg/kg/injection, schedule: Q01DX001 (ip), vehicle: saline with Tween-80

Measured: T/C

Cc1cc(O)[nH]c(=O)c1
inactive: dose: 5.0 mg/kg/injection, schedule: Q01DX001 (ip), vehicle: saline 105 % of control | dose: 10.0 mg/kg/injection, schedule: Q01DX001 (ip), vehicle: saline 105 % of control | dose: 20.0 mg/kg/injection, schedule: Q01DX001 (ip), vehicle: saline 100 % of control | dose: 40.0 mg/kg/injection, schedule: Q01DX001 (ip), vehicle: saline 105 % of control | dose: 80.0 mg/kg/injection, schedule: Q01DX001 (ip), vehicle: saline 100 % of control

CCCCCCCN(CCCCCCC)CC(O)c1cc2ccc(Cl)cc2c2cccnc12 (centres undefined)
inactive: dose: 50.0 mg/kg/injection, schedule: Q01DX009 (ip), vehicle: Klucel (hydroxypropylcellulose) (HPC) 98 % of control | [1] 96 % of control | dose: 100.0 mg/kg/injection, schedule: Q04DX003 (ip), vehicle: Klucel (hydroxypropylcellulose) (HPC) 102 % of control | dose: 200.0 mg/kg/injection, schedule: Q04DX003 (ip), vehicle: Klucel (hydroxypropylcellulose) (HPC) 104 % of control

O=C(O)C1C2C=CC(C2)C1C(=O)Nc1ccccn1 (centres undefined)
inactive: [2] 104 % of control | [3] 101 % of control | [4] 96 % of control

O=C(Nc1ccc(S(=O)(=O)F)cc1)/C(=C\c1ccc([N+](=O)[O-])cc1)c1cccc(Cl)c1
inactive: [5] 94 % of control | [6] 105 % of control | dose: 400.0 mg/kg/injection, schedule: Q04DX002 (ip), vehicle: Klucel (hydroxypropylcellulose) (HPC) 105 % of control

CC1=CP(=O)(O)CC1
inactive: [7] 113 % of control | [8] 103 % of control | [9] 95 % of control | [10] 98 % of control | [11] 93 % of control

CC1(/C=N\NC(=O)CCCC(=O)N/N=C/C2(C)CCC=CO2)CCC=CO1 (centres undefined)
inactive: [12] 92 % of control | [13] 97 % of control

C=CCOP1(=O)OCC2OC(n3cnc4c(N)ncnc43)C(O)C2O1 (centres undefined)
inactive: [7] 98 % of control | dose: 100.0 mg/kg/injection, schedule: Q01DX005 (ip), vehicle: saline 100 % of control | [8] 89 % of control | dose: 200.0 mg/kg/injection, schedule: Q01DX005 (ip), vehicle: saline 92 % of control | [10] 97 % of control

c1cncc(Nc2c3ccccc3nc3ccccc23)c1
inactive: [12] 97 % of control | [14] 99 % of control | [13] 94 % of control

CC(=O)c1ccc(SC(=O)N(C)C)cc1
inactive: [15] 98 % of control | [16] 93 % of control | [17] 97 % of control

COC1OC(CI)C(OC(C)=O)C(OC(C)=O)C1OC(C)=O (centres undefined)
inactive: dose: 50.0 mg/kg/injection, schedule: Q04DX002 (ip), vehicle: Klucel (hydroxypropylcellulose) (HPC) 94 % of control | [5] 94 % of control | [6] 97 % of control

ClC1C2C=CC1CC2 (centres undefined)
inactive: [18] 90 % of control | [19] 90 % of control | [20] 93 % of control

N#Cc1ccccc1N=NNc1ccc(-c2nc(N)nc(N)n2)cc1
inactive: [9] 94 % of control | [11] 89 % of control | dose: 400.0 mg/kg/injection, schedule: Q04DX003 (ip), vehicle: saline 89 % of control

CC(C)=CC(=O)C1C(=O)c2ccccc2C1=O
inactive: [21] 96 % of control | [18] 90 % of control

O=C(C(=C(c1ccccc1)c1ccccc1)N1CCCCC1)c1ccccc1
inactive: [12] 96 % of control | [1] 92 % of control | [14] 97 % of control | dose: 200.0 mg/kg/injection, schedule: Q01DX009 (ip), vehicle: Klucel (hydroxypropylcellulose) (HPC) 92 % of control | [13] 97 % of control | dose: 400.0 mg/kg/injection, schedule: Q01DX009 (ip), vehicle: Klucel (hydroxypropylcellulose) (HPC) 92 % of control

Cc1ccc(C)c2c1CCCC2=O
inactive: dose: 12.5 mg/kg/injection, schedule: Q01DX009 (ip), vehicle: saline with Tween-80 110 % of control | dose: 25.0 mg/kg/injection, schedule: Q01DX009 (ip), vehicle: saline with Tween-80 107 % of control and 114 % of control | [2] 98 % of control and 106 % of control | [3] 88 % of control | [4] 93 % of control | [22] 96 % of control

O=c1[nH]c(=O)n(Cc2ccccc2)cc1Cc1cccc(OCc2ccccc2)c1
inactive: [15] 97 % of control | [16] 96 % of control | [17] 97 % of control

CC(C)=CCCC(C)C1CCC2C3CC=C4CC(O)CCC4(C)C3CCC12C (centres undefined)
inactive: [23] 91 % of control | [24] 95 % of control | [25] 95 % of control

COc1ccc2nc3cc(Cl)ccc3c(NCCCSCCCl)c2n1
inactive: dose: 2.0 mg/kg/injection, schedule: Q01DX009 (ip), vehicle: saline 116 % of control | dose: 8.0 mg/kg/injection, schedule: Q01DX009 (ip), vehicle: saline 109 % of control

CC(C)CCOC(=O)c1ccccc1OC(=O)Nc1ccc(Cl)cc1[N+](=O)[O-]
inactive: [23] 102 % of control | [3] 99 % of control and 89 % of control | dose: 100.0 mg/kg/injection, schedule: Q04DX002 (ip), vehicle: saline with Tween-80 94 % of control and 103 % of control | [15] 91 % of control | [24] 90 % of control | [4] 86 % of control and 89 % of control | dose: 200.0 mg/kg/injection, schedule: Q04DX002 (ip), vehicle: saline with Tween-80 97 % of control and 88 % of control | [16] 91 % of control | [25] 88 % of control | [22] 89 % of control | dose: 400.0 mg/kg/injection, schedule: Q04DX002 (ip), vehicle: saline with Tween-80 100 % of control and 104 % of control | [17] 99 % of control

CC(=O)Nc1ccc(S(N)(=O)=O)cc1
inactive: [21] 95 % of control | [18] 101 % of control | [1] 103 % of control | [19] 95 % of control | [20] 97 % of control

COc1ccccc1N=Nc1cc(C)c(C)cc1O
inactive: [2] 106 % of control | [3] 103 % of control | [4] 95 % of control
